Measured values from patent publication US9469615B2, “Quinoxalines and AZA-quinoxalines as CRTH2 receptor modulators” (Merck Sharp & Dohme Corp., priority 2010, dated 2016).

Target: T1, hCRTH2 (Homo sapiens, UniProt Q9Y5Y4)
T1 construct: expressed in transfected cells; host or cells: HEK (human embryonic kidney) cells expressing hCRTH2; membrane preparation
T1 sequence (Q9Y5Y4 1-395): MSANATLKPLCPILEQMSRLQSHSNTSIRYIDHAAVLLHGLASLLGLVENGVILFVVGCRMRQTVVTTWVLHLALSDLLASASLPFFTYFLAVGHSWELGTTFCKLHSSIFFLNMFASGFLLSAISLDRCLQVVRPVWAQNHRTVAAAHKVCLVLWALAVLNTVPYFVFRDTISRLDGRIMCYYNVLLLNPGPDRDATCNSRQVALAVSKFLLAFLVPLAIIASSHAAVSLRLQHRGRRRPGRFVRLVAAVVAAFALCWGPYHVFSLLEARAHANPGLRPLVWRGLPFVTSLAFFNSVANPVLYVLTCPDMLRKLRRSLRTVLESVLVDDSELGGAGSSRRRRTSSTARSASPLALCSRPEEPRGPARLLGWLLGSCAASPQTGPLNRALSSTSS
Experiment: Radioligand binding assay ([3H]PGD2 competition, HEK-hCRTH2 membranes)
Conditions: [3H]PGD2 competition, Table B
Method in brief: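 Membranes (8-20 μg protein) from HEK-hCRTH2 cells were incubated 60 min at room temperature with 3.0 nM [3H]PGD2 in 50 mM Tris-HCl pH 7.4, 1 mM EDTA, 2 mM MnCl2, 1% DMSO. Non-specific binding defined with 10 μM PGD2. Bound radioactivity counted after filtration.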

Ki	SMILES
2.1 to 20 nM	CC(C)[C@@H](NC(=O)c1ccc2nc(-c3ccc(Cl)cc3)c(CCCCC(=O)O)nc2c1)c1ccc(F)cc1 [compound 399, (R)-5-(3-(4-chlorophenyl)-7-((1-(4-fluorophenyl)-2-methylpropyl)carbamoyl)quinoxalin-2-yl) pentanoic acid]
2.1 to 20 nM	N#Cc1ccc(C2CN(C(=O)c3ccc4nc(-c5ccc(Cl)cc5)c(CC5CCC(C(=O)O)C5)nc4c3)C2)cc1 (stereo not shown) [compound 400, 3-((3-(4-chlorophenyl)-7-(3-(4-cyanophenyl)azetidine-1-carbonyl)quinoxalin-2-yl)methyl)cyclopentane-carboxylic acid]
20.1 to 200 nM	O=C(N[C@H](c1ccc(Cl)cc1)C(F)(F)F)c1ccc2nc(-c3ccc(Cl)cc3)c(CC3CCC(C(=O)O)C3)nc2c1 (stereo partly shown) [compound 401]
2.1 to 20 nM	CC(C)[C@H](NC(=O)c1ccc2nc(-c3ccc(Cl)cc3)c(CCCCC(=O)O)nc2c1)c1ccc(F)cc1 [compound 402, (S)-5-(3-(4-chlorophenyl)-7-((1-(4-fluorophenyl)-2-methylpropyl)carbamoyl)quinoxalin-2-yl) pentanoic acid]
0.1 to 2 nM	C[C@@H](NC(=O)c1ccc2nc(-c3ccc(Cl)cc3)c(CCCCC(=O)O)nc2c1)c1ccc(C#N)cc1 [compound 403, (R)-5-(3-(4-chlorophenyl)-7-((1-(4-cyanophenyl)ethyl)carbamoyl)quinoxalin-2-yl)pentanoic acid]
2.1 to 20 nM	C[C@H](NC(=O)c1ccc2nc(-c3ccc(Cl)cc3)c(CC3CCC(C(=O)O)C3)nc2c1)c1ccccc1 (stereo partly drawn) [compound 404, 3-((3-(4-chlorophenyl)-7-(((S)-1-phenylethyl)carbamoyl)quinoxalin-2-yl)methyl)cyclopentane-carboxylic acid]
2.1 to 20 nM	O=C(N[C@@H](c1ccccc1)C(F)(F)F)c1ccc2nc(-c3ccc(Cl)cc3)c(CC3CCC(C(=O)O)C3)nc2c1 (stereo partly drawn) [compound 405, 3-((3-(4-chlorophenyl)-7-(((S)-2,2,2-trifluoro-1-phenylethyl)carbamoyl)quinoxalin-2-yl)methyl)cyclopentane-carboxylic acid]
2.1 to 20 nM	O=C(N[C@@H](c1ccc(Cl)cc1)C(F)(F)F)c1ccc2nc(-c3ccc(Cl)cc3)c(CC3CCC(C(=O)O)C3)nc2c1 (stereo partly drawn) [compound 406, 3-((3-(4-chlorophenyl)-7-(((S)-1-(4-chlorophenyl)-2,2,2-trifluoroethyl)carbamoyl)quinoxalin-2-yl)methyl)cyclopentane-carboxylic acid]
2.1 to 20 nM	C[C@H](NC(=O)c1ccc2nc(-c3ccc(Cl)cc3)c(CC3CCC(C(=O)O)C3)nc2c1)c1ccc(F)cc1 (stereo partly drawn) [compound 407, 3-((3-(4-chlorophenyl)-7-(((S)-1-(4-fluorophenyl)ethyl)carbamoyl)quinoxalin-2-yl)methyl)cyclopentane-carboxylic acid]
0.1 to 2 nM	CC(CCCc1nc2cc(C(=O)N[C@H](C)c3ccc(F)cc3)ccc2nc1-c1ccc(Cl)cc1)C(=O)O (stereo partly drawn) [compound 408, 5-(3-(4-chlorophenyl)-7-(((R)-1-(4-fluorophenyl)ethyl)carbamoyl)quinoxalin-2-yl)-2-methylpentanoic acid]
20.1 to 200 nM	CC(CCCc1nc2cc(C(=O)N[C@H](C)c3ccc(F)cc3)ccc2nc1-c1ccc(Cl)cc1)C(=O)O (stereo partly drawn) [compound 409, 5-(3-(4-chlorophenyl)-7-(((R)-1-(4-fluorophenyl)ethyl)carbamoyl)quinoxalin-2-yl)-2-methylpentanoic acid]
20.1 to 200 nM	C[C@@H](NC(=O)c1ccc2nc(-c3cccc(C#N)c3)c(CCCCC(=O)O)nc2c1)c1ccc(F)cc1 [compound 410, (R)-5-(3-(3-cyanophenyl)-7-((1-(4-fluorophenyl)ethyl)carbamoyl)quinoxalin-2-yl)pentanoic acid]
20.1 to 200 nM	C[C@@H](NC(=O)c1ccc2nc(-c3ccc(F)c(F)c3)c(CCCCC(=O)O)nc2c1)c1ccc(F)cc1 [compound 411]
0.1 to 2 nM	C[C@@H](NC(=O)c1ccc2nc(-c3ccc(Cl)cc3)c(CCCCC(=O)O)nc2c1)c1cc(F)cc(F)c1 [compound 412, (R)-5-(3-(4-chlorophenyl)-7-((1-(3,5-difluorophenyl)ethyl)carbamoyl)quinoxalin-2-yl) pentanoic acid]
0.1 to 2 nM	C[C@H](NC(=O)c1ccc2nc(-c3ccc(Cl)cc3)c(CCCCC(=O)O)nc2c1)c1cc(F)cc(F)c1 [compound 413, (S)-5-(3-(4-chlorophenyl)-7-((1-(3,5-difluorophenyl)ethyl)carbamoyl)quinoxalin-2-yl) pentanoic acid]
0.1 to 2 nM	O=C(O)CCCCc1nc2cc(C(=O)N3CCC(c4ccc(F)cc4)CC3)ccc2nc1-c1ccc(Cl)cc1 [compound 414, 5-(3-(4-chlorophenyl)-7-(4-(4-fluorophenyl)piperidine-1-carbonyl)quinoxalin-2-yl)pentanoic acid]
0.1 to 2 nM	O=C(O)CCCCc1nc2cc(C(=O)N3CCC(c4ccc(Cl)cc4)CC3)ccc2nc1-c1ccc(Cl)cc1 [compound 415, 5-(3-(4-chlorophenyl)-7-(4-(4-chlorophenyl)piperidine-1-carbonyl)quinoxalin-2-yl)pentanoic acid]
2.1 to 20 nM	C[C@@H](NC(=O)c1ccc2nc(-c3ccc(Cl)cc3Cl)c(CCCCC(=O)O)nc2c1)c1ccc(F)cc1 [compound 416, (R)-5-(3-(2,4-dichlorophenyl)-7-((1-(4-fluorophenyl)ethyl)carbamoyl)quinoxalin-2-yl)pentanoic acid]
2.1 to 20 nM	C[C@@H](NC(=O)c1ccc2nc(-c3ccc(C(F)(F)F)cc3Cl)c(CCCCC(=O)O)nc2c1)c1ccc(F)cc1 [compound 417, (R)-5-(3-(2-chloro-4-(trifluoromethyl)phenyl)-7-((1-(4-fluorophenyl)ethyl)carbamoyl)quinoxalin-2-yl) pentanoic acid]
20.1 to 200 nM	C[C@@H](NC(=O)c1ccc2nc(-c3ccc(Cl)cc3)c(CCC(=O)O)nc2c1)c1ccc(F)cc1 [compound 418, (R)-3-(3-(4-chlorophenyl)-7-((1-(4-fluorophenyl)ethyl)carbamoyl)quinoxalin-2-yl) propanoic acid]
0.1 to 2 nM	O=C(O)CCCCc1nc2cc(C(=O)N3CC(c4cccc(F)c4)C3)ccc2nc1-c1ccc(Cl)cc1 [compound 419, 5-(3-(4-chlorophenyl)-7-(3-(3-fluorophenyl)azetidine-1-carbonyl)quinoxalin-2-yl)pentanoic acid]
0.1 to 2 nM	O=C(O)CCCCc1nc2cc(C(=O)N3CC(c4ccc(F)c(F)c4)C3)ccc2nc1-c1ccc(Cl)cc1 [compound 420, 5-(3-(4-chlorophenyl)-7-(3-(3,4-difluorophenyl)azetidine-1-carbonyl)quinoxalin-2-yl)pentanoic acid]
0.1 to 2 nM	N#Cc1ccc(C2CN(C(=O)c3ccc4nc(-c5ccc(Cl)cc5)c(CCCCC(=O)O)nc4c3)C2)cc1 [compound 421, 5-(3-(4-chlorophenyl)-7-(3-(4-cyanophenyl)azetidine-l-carbonyl)quinoxalin-2-yl)pentanoic acid]
2.1 to 20 nM	C[C@@H](NC(=O)c1ccc2nc(-c3ccccc3)c(CC3CC(C(=O)O)C3)nc2c1)c1ccc(F)cc1 (stereo partly drawn) [compound 422, (R)-3-((7-((1-(4-fluorophenyl)ethyl)carbamoyl)-3-phenylquinoxalin-2-yl)methyl)cyclobutanecarboxyl acid]
2.1 to 20 nM	CC(CCCc1nc2cc(C(=O)N3CCN(c4ccccc4)CC3)ccc2nc1-c1ccc(C(F)(F)F)cc1)C(=O)O (stereo not shown) [compound 423, 2-methyl-5-(7-(4-phenylpperazine-1-carbonyl)-3-(4-(trifluoromethyl)phenyl)quinoxalin-2-yl) pentanoic acid]
